Key:
rat URAT1 = target: T1, rat URAT1 (Rattus norvegicus, UniProt Q3ZAV1); experiment: ^3H-RDEA3170 URAT1 membrane binding assay; settings: 500 nM ^3H-RDEA3170; membranes from transfected cells
T1 construct: hURAT1 and rURAT1 are 553 amino acid proteins with 12 transmembrane segments; expressed in transfected cells; host or cells: URAT1-transfected cells (HEK-293T per the transfection section)
Description: (§1) Membranes were prepared from URAT1-transfected cells. […] Cells were lysed with 100 strokes in a dounce homogenizer using a tight-fitting “B” stem. Lysates were transferred to 1.5 ml Eppendorf tubes and centrifuged at 250 rcf for 5 minutes at 2 °C, and supernatants were transferred to fresh tubes and centrifuged again at 18,000 rcf for 20 minutes at 2 °C. The pellets (membrane fractions) were resuspended in 1 ml of ice-cold binding buffer containing protease inhibitors and frozen at −80 °C. Protein was measured using the Bio-Rad protein assay dye reagent concentrate.
(§2) To initiate binding, membranes at 2.5 μg total protein were incubated with ^3H-RDEA3170 for 30 minutes at room temperature. […] The plates were then subjected to scintillation counting. All samples were assayed in triplicate.

human URAT1 = target: T2, human URAT1 (Homo sapiens, UniProt Q96S37); experiment: ^3H-RDEA3170 URAT1 membrane binding assay
T2 construct: hURAT1 and rURAT1 are 553 amino acid proteins with 12 transmembrane segments; expressed in transfected cells; host or cells: URAT1-transfected cells (HEK-293T per the transfection section)
T2 sequence (Q96S37 1-553): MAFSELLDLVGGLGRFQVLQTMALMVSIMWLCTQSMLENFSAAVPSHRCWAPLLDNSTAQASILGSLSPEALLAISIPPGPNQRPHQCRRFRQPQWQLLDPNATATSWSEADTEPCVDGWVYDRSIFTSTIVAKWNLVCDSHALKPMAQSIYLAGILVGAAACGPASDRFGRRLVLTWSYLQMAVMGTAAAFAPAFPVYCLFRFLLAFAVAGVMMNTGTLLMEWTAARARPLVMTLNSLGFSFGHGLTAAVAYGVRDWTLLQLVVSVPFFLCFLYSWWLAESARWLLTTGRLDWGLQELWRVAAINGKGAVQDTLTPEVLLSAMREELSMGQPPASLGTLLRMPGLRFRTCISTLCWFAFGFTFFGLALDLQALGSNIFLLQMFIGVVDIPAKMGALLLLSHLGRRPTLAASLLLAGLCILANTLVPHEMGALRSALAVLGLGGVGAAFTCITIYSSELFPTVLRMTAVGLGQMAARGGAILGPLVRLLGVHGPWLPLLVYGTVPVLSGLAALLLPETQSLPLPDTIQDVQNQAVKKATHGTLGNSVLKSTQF
Description: as §1, §2

T1 sequence (Q3ZAV1 whole entry): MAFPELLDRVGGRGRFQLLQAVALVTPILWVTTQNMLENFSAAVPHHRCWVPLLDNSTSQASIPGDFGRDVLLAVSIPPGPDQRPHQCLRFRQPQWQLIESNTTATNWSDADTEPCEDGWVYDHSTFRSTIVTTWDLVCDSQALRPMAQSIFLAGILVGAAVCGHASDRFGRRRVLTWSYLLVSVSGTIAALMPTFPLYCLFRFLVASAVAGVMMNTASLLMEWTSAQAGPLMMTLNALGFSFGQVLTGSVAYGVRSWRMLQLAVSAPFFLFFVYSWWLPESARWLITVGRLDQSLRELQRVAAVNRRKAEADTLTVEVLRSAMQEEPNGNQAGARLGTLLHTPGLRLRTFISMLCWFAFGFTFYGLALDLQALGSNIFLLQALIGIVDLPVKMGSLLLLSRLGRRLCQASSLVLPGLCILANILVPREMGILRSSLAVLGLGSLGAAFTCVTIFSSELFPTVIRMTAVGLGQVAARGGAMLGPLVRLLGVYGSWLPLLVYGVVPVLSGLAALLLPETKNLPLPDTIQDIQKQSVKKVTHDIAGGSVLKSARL

SMILES | binding of probe to rat URAT1 membranes (rat URAT1) | binding of probe to human URAT1 membranes (human URAT1; 500 nM ^3H-RDEA3170, membranes from transfected cells) | displacement of ^3H-RDEA3170 binding to hURAT1 (human URAT1; human URAT1 membranes, 10 nM ^3H-RDEA3170)
CC(C)(Sc1ccncc1-c1ccc(C#N)c2ccccc12)C(=O)O [^3H-RDEA3170, 2-((3-(4-cyanonaphthalen-1-yl)pyrindin-4-yl)thio)-2-methylpropanoic acid] | not rat URAT1 | binds to human URAT1 | –
CCCN(CCC)S(=O)(=O)c1ccc(C(=O)O)cc1 [probenecid] | – | – | displace binding of the probe

Source: publication PMC5054527, “Mechanism of high affinity inhibition of the human urate transporter URAT1” (Scientific Reports, 2016)
